Test results as given in the NIST ThermoML archive (doi:10.1021/je200806n).
Numbers after ± are expanded uncertainties.

Test: xn = mol fraction of the nth substance listed
Settings: 101.3 kPa, Liquid

CCCCCC(C)O (centres undefined) [2-heptanol] + O=C1CCCCC1
Settings	mass density, 298.15 K [kg/m3]	mass density, 303.15 K [kg/m3]	mass density, 308.15 K [kg/m3]	mass density, 313.15 K [kg/m3]	viscosity, 298.15 K [mPa·s]	viscosity, 303.15 K [mPa·s]	viscosity, 308.15 K [mPa·s]	viscosity, 313.15 K [mPa·s]
x2 = 0	813.18 ± 0.55	809.26 ± 0.55	805.01 ± 0.56	801.14 ± 0.56	5.023 ± 0.06	4.151 ± 0.05	3.478 ± 0.042	2.852 ± 0.035
x2 = 0.0826	820.37 ± 0.54	816.21 ± 0.54	811.69 ± 0.55	807.61 ± 0.55	4.282 ± 0.052	3.546 ± 0.043	2.94 ± 0.036	2.412 ± 0.03
x2 = 0.1625	827.64 ± 0.53	823.36 ± 0.53	818.81 ± 0.54	814.53 ± 0.55	3.64 ± 0.044	2.986 ± 0.037	2.448 ± 0.03	1.989 ± 0.025
x2 = 0.2415	835.26 ± 0.52	830.91 ± 0.53	826.28 ± 0.53	821.87 ± 0.54	3.081 ± 0.038	2.473 ± 0.031	1.999 ± 0.025	1.604 ± 0.021
x2 = 0.3506	846.69 ± 0.51	842.19 ± 0.51	837.46 ± 0.52	832.94 ± 0.52	2.401 ± 0.03	1.874 ± 0.024	1.482 ± 0.019	1.151 ± 0.015
x2 = 0.44	856.83 ± 0.49	852.22 ± 0.5	847.44 ± 0.51	842.79 ± 0.51	1.954 ± 0.025	1.468 ± 0.019	1.141 ± 0.015	0.862 ± 0.012
x2 = 0.5603	871.72 ± 0.48	866.99 ± 0.48	862.12 ± 0.49	857.35 ± 0.49	1.513 ± 0.019	1.107 ± 0.015	0.849 ± 0.012	0.627 ± 0.009
x2 = 0.6494	883.79 ± 0.46	878.98 ± 0.47	874.11 ± 0.47	869.26 ± 0.48	1.308 ± 0.017	0.971 ± 0.013	0.773 ± 0.011	0.576 ± 0.009
x2 = 0.7394	896.96 ± 0.45	892.15 ± 0.45	887.29 ± 0.46	882.32 ± 0.46	1.243 ± 0.016	0.976 ± 0.013	0.816 ± 0.011	0.647 ± 0.009
x2 = 0.85	914.67 ± 0.42	909.91 ± 0.43	905.04 ± 0.44	900.06 ± 0.44	1.391 ± 0.018	1.193 ± 0.016	1.054 ± 0.014	0.91 ± 0.012
x2 = 0.9392	930.26 ± 0.41	925.58 ± 0.41	920.79 ± 0.42	915.85 ± 0.42	1.727 ± 0.022	1.535 ± 0.02	1.411 ± 0.018	1.256 ± 0.016

CCCCC(C)O (centres undefined) [2-hexanol] + O=C1CCCCC1
Settings	mass density, 298.15 K [kg/m3]	mass density, 303.15 K [kg/m3]	mass density, 308.15 K [kg/m3]	mass density, 313.15 K [kg/m3]	viscosity, 298.15 K [mPa·s]	viscosity, 303.15 K [mPa·s]	viscosity, 308.15 K [mPa·s]	viscosity, 313.15 K [mPa·s]
x2 = 0	810.14 ± 0.55	806.13 ± 0.56	802.06 ± 0.56	797.96 ± 0.57	4.101 ± 0.05	3.411 ± 0.042	2.819 ± 0.035	2.219 ± 0.028
x2 = 0.0821	818.43 ± 0.54	814.12 ± 0.55	809.89 ± 0.55	805.91 ± 0.56	3.432 ± 0.042	2.834 ± 0.035	2.278 ± 0.028	1.686 ± 0.022
x2 = 0.1612	826.61 ± 0.53	822.29 ± 0.54	818.07 ± 0.54	814.07 ± 0.55	2.879 ± 0.035	2.346 ± 0.029	1.823 ± 0.023	1.307 ± 0.017
x2 = 0.2409	835.25 ± 0.52	830.81 ± 0.53	826.44 ± 0.53	822.41 ± 0.54	2.406 ± 0.03	1.932 ± 0.024	1.453 ± 0.019	1.024 ± 0.014
x2 = 0.3496	847.88 ± 0.5	843.37 ± 0.51	838.88 ± 0.52	834.71 ± 0.52	1.896 ± 0.024	1.477 ± 0.019	1.122 ± 0.015	0.781 ± 0.011
x2 = 0.4391	858.93 ± 0.49	854.32 ± 0.5	849.76 ± 0.5	845.48 ± 0.51	1.591 ± 0.02	1.23 ± 0.016	0.949 ± 0.013	0.679 ± 0.01
x2 = 0.56	874.62 ± 0.47	869.92 ± 0.48	865.28 ± 0.48	860.83 ± 0.49	1.359 ± 0.018	1.08 ± 0.014	0.873 ± 0.012	0.655 ± 0.009
x2 = 0.649	886.88 ± 0.46	882.07 ± 0.46	877.39 ± 0.47	872.97 ± 0.47	1.325 ± 0.017	1.082 ± 0.014	0.907 ± 0.012	0.727 ± 0.01
x2 = 0.7391	899.87 ± 0.44	895.12 ± 0.45	890.41 ± 0.45	885.97 ± 0.46	1.388 ± 0.018	1.173 ± 0.015	1.026 ± 0.014	0.85 ± 0.012
x2 = 0.8492	916.79 ± 0.42	912.01 ± 0.43	907.19 ± 0.43	902.71 ± 0.44	1.576 ± 0.02	1.4 ± 0.018	1.249 ± 0.016	1.068 ± 0.014
x2 = 0.9395	931.44 ± 0.4	926.63 ± 0.41	921.93 ± 0.42	917.21 ± 0.42	1.842 ± 0.023	1.662 ± 0.021	1.505 ± 0.019	1.326 ± 0.017

CCC(C)O (centres undefined) [butan-2-ol] + O=C1CCCCC1
x2 = 0
Settings	mass density [kg/m3]	viscosity [mPa·s]
298.15 K	803.01 ± 0.56	3.104 ± 0.038
303.15 K	798.29 ± 0.57	2.597 ± 0.032
308.15 K	793.57 ± 0.57	2.152 ± 0.027
313.15 K	789.15 ± 0.58	1.733 ± 0.022
